Laboratory results reported in ChEMBL document CHEMBL4808250, “Synthesis and biological evaluation of substituted amide derivatives of C4-ageratochromene dimer analog” (Bioorg Med Chem Lett, 2021).
The source made the active and inactive calls. The rule behind the calls is not given here.

Assays:
[1] = system: MDA-MB-231; test: Antiproliferative activity against ER-negative human MDA-MB-231 cells assessed as reduction in cell growth at 50 ug/ml measured by MTT assay; type: functional; settings: read-out: GI
[2] = system: PA-1; test: Antiproliferative activity against human PA-1 cells assessed as reduction in cell growth at 50 ug/ml measured by MTT assay; type: functional; settings: read-out: GI
[3] = system: Calvarial osteoblast; test: Induction of osteoblast differentiation in mouse calvarial osteoblasts assessed as increase in ALP activity at 1 pM incubated for 48 hrs by spectrophotometric analysis; type: functional, cell-based
[4] = system: MCF7; test: Antiproliferative activity against ER-positive human MCF7 cells assessed as reduction in cell growth at 50 ug/ml measured by MTT assay; type: functional; settings: read-out: GI
[5] = system: Calvarial osteoblast; test: Induction of osteoblast differentiation in mouse calvarial osteoblasts assessed as increase in ALP activity at 100 pM incubated for 48 hrs by spectrophotometric analysis; type: functional, cell-based
[6] = system: Calvarial osteoblast; test: Induction of osteogenic differentiation in mouse calvarial osteoblasts assessed as increase in Type-1 collagen mRNA expression level at 1 to 100 pM after 24 to 48 hrs by RT-qPCR analysis; type: functional, cell-based; settings: dose 1-100 pM, time 24-48 hrs
[7] = system: Calvarial osteoblast; test: Cytotoxicity against mouse calvarial osteoblasts assessed as reduction in cell viability at 0.000001 to 1 uM measured after 48 hrs by MTT assay; type: cell-based; settings: dose lower 1e-06 µM, dose upper 1 µM
[8] = system: Calvarial osteoblast; test: Induction of osteoblast differentiation in mouse calvarial osteoblasts assessed as increase in bone mineralization at 1 pM incubated for 21 days by alizarin-red S dye based colorimetric analysis; type: functional, cell-based; settings: time 21.0 day
[9] = system: Calvarial osteoblast; test: Induction of osteogenic differentiation in mouse calvarial osteoblasts assessed as increase in RUNX2 mRNA expression level at 1 to 100 pM after 24 to 48 hrs by RT-qPCR analysis; type: functional, cell-based; settings: dose 1-100 pM, time 24-48 hrs
[10] = system: Calvarial osteoblast; test: Induction of osteogenic differentiation in mouse calvarial osteoblasts assessed as increase in BMP2 mRNA expression level at 1 to 100 pM after 24 to 48 hrs by RT-qPCR analysis; type: functional, cell-based; settings: dose 1-100 pM, time 24-48 hrs

Structure (SMILES)	inhibition of growth at 50 µg/mL [1] [%]	inhibition of growth at 50 µg/mL [2] [%]	inhibition of growth at 50 µg/mL [4] [%]	further results
COc1ccc2c(c1)OC(C)(C)C/C2=C1/CC(C)(C)Oc2cc(OCCCC(=O)NCCCCCCNC(=O)OC(C)(C)C)ccc21	36.5	26.6	–	Activity [3]: Active
COc1ccc2c(c1)OC(C)(C)C/C2=C1/CC(C)(C)Oc2cc(OCCCC(=O)N3CCCC3)ccc21	36.5	26.6	25.2	Activity [3]: Active
COc1ccc2c(c1)OC(C)(C)C/C2=C1/CC(C)(C)Oc2cc(OCCCCCC(=O)N3CCCC3)ccc21	–	–	25.2	–
COc1ccc2c(c1)OC(C)(C)C/C2=C1/CC(C)(C)Oc2cc(O)ccc21	36.5	26.6	25.2	–
COc1ccc2c(c1)OC(C)(C)C/C2=C1/CC(C)(C)Oc2cc(OCCCCCC(=O)NCCCCCCNC(=O)OC(C)(C)C)ccc21	36.5	26.6	25.2	Activity [5]: Active
COc1ccc2c(c1)OC(C)(C)C/C2=C1/CC(C)(C)Oc2cc(OCCCC(=O)NCc3ccccn3)ccc21	–	26.6	–	–
COc1ccc2c(c1)OC(C)(C)C/C2=C1/CC(C)(C)Oc2cc(OCCCCC(=O)NCc3ccccn3)ccc21	36.5	26.6	25.2	–
COc1ccc2c(c1)OC(C)(C)C/C2=C1/CC(C)(C)Oc2cc(OCCCCCC(=O)N3CCCCC3)ccc21	36.5	26.6	–	–
COc1ccc2c(c1)OC(C)(C)C/C2=C1/CC(C)(C)Oc2cc(OCCCCC(=O)N3CCN(C)CC3)ccc21	36.5	26.6	25.2	–
COc1ccc2c(c1)OC(C)(C)C/C2=C1/CC(C)(C)Oc2cc(OCCCCC(=O)N3CCCCC3)ccc21	36.5	26.6	25.2	–
COc1ccc2c(c1)OC(C)(C)C/C2=C1/CC(C)(C)Oc2cc(OCCCCCC(=O)NCc3ccccn3)ccc21	36.5	–	–	–
COc1ccc2c(c1)OC(C)(C)C/C2=C1/CC(C)(C)Oc2cc(OCCCCCC(=O)N3CCN(C)CC3)ccc21	–	26.6	25.2	–
COc1ccc2c(c1)OC(C)(C)C/C2=C1/CC(C)(C)Oc2cc(OCCCCC(=O)N3CCCC3)ccc21	36.5	26.6	25.2	–
CNCCCCNC(=O)CCCCOc1ccc2c(c1)OC(C)(C)C/C2=C1/CC(C)(C)Oc2cc(OC)ccc21	36.5	–	25.2	Activity [3]: Active
CNCCCCNC(=O)CCCCCOc1ccc2c(c1)OC(C)(C)C/C2=C1/CC(C)(C)Oc2cc(OC)ccc21	36.5	26.6	25.2	–
CNCCCCNC(=O)CCCOc1ccc2c(c1)OC(C)(C)C/C2=C1/CC(C)(C)Oc2cc(OC)ccc21	36.5	–	–	–
COc1ccc2c(c1)OC(C)(C)C/C2=C1/CC(C)(C)Oc2cc(OC)ccc21	36.5	26.6	25.2	–
COc1ccc2c(c1)OC(C)(C)C/C2=C1/CC(C)(C)Oc2cc(OCCCC(=O)N3CCN(C)CC3)ccc21	–	–	25.2	Activity [5]: Active
COc1ccc2c(c1)OC(C)(C)C/C2=C1/CC(C)(C)Oc2cc(OCCCC(=O)N3CCCCC3)ccc21	15.9	68.3	26.1	Activity [6]: Active; Activity [7]: Non-Toxic; Activity [8]: Active; Activity [9]: Active; Activity [3]: Active; Activity [10]: Active
